In the supplement of paper PMC13380429:

Experiments:
Conditions in all cases: 72 h
Caco-2 [1] = experiment: cell viability relative to DMSO; higher = less toxic
Calu-3 [2] = experiment: as above
HepG2 [3] = experiment: as above
U2OS [4] = experiment: as above
Vero E6 [5] = experiment: as above
Caco-2 [6] = experiment: relative viability EC50 (midpoint between 100% and the lowest measured viability); higher = less toxic
Calu-3 [7] = experiment: as above
HepG2 [8] = experiment: as above
U2OS [9] = experiment: as above
Vero E6 [10] = experiment: as above
Caco-2 [11] = experiment: drug sensitivity score (DSS) for viability; higher = more toxic; extreme values may be limits of the assay
Calu-3 [12] = experiment: as above
HepG2 [13] = experiment: as above
U2OS [14] = experiment: as above
Vero E6 [15] = experiment: as above

SMILES | cell viability (Caco-2 [1]; 1 nM) | cell viability (Caco-2 [1]; 10 nM) | cell viability (Caco-2 [1]; 100 nM) | cell viability (Caco-2 [1]; 1000 nM) | cell viability (Caco-2 [1]; 10000 nM) | cell viability (Calu-3 [2]; 1 nM) | cell viability (Calu-3 [2]; 10 nM) | cell viability (Calu-3 [2]; 100 nM) | cell viability (Calu-3 [2]; 1000 nM) | cell viability (Calu-3 [2]; 10000 nM) | cell viability (HepG2 [3]; 1 nM) | cell viability (HepG2 [3]; 10 nM) | cell viability (HepG2 [3]; 100 nM) | cell viability (HepG2 [3]; 1000 nM) | cell viability (HepG2 [3]; 10000 nM) | cell viability (U2OS [4]; 1 nM) | cell viability (U2OS [4]; 10 nM) | cell viability (U2OS [4]; 100 nM) | cell viability (U2OS [4]; 1000 nM) | cell viability (U2OS [4]; 10000 nM) | cell viability (Vero E6 [5]; 1 nM) | cell viability (Vero E6 [5]; 10 nM) | cell viability (Vero E6 [5]; 100 nM) | cell viability (Vero E6 [5]; 1000 nM) | cell viability (Vero E6 [5]; 10000 nM) | relative viability EC50 (Caco-2 [6]) | relative viability EC50 (Calu-3 [7]) | relative viability EC50 (HepG2 [8]) | relative viability EC50 (U2OS [9]) | relative viability EC50 (Vero E6 [10]) | drug sensitivity score (Caco-2 [11]) | drug sensitivity score (Calu-3 [12]) | drug sensitivity score (HepG2 [13]) | drug sensitivity score (U2OS [14]) | drug sensitivity score (Vero E6 [15])
c1ccc2sc(N3CCN(Cc4ccc5c(c4)OCO5)CC3)nc2c1 [2-[1-(4-piperonyl)piperazinyl]benzothiazole] | 103% | 92.2% | 98.9% | 90.3% | 100% | 102% | 92.8% | 103% | 98.6% | 90.5% | 98.4% | 108% | 100% | 96% | 103% | 97.2% | 98% | 106% | 96.1% | 104% | 92% | 94.8% | 91.7% | 95.8% | 100% | > 10 µM | > 10 µM | > 10 µM | > 10 µM | > 10 µM | 0 | 0 | 0 | 0 | 0
COc1cc2c(cc1OC)CN(CCc1ccc(NC(=O)c3cc(OC)c(OC)cc3NC(=O)c3cnc4ccccc4c3)cc1)CC2 [tariquidar] | 89.2% | 94.2% | 99.8% | 95.3% | 108% | 93.5% | 94.6% | 84% | 101% | 103% | 102% | 90.9% | 108% | 93.5% | 105% | 94.9% | 100% | 97.2% | 103% | 103% | 105% | 94.5% | 96.8% | 96.4% | 107% | > 10 µM | > 10 µM | > 10 µM | > 10 µM | > 10 µM | 0 | 0 | 0 | 0 | 0
N[C@@]1(C(=O)O)CC[C@H]2[C@H](C(=O)O)[C@H]21 [eglumetad] | 107% | 104% | 93.8% | 102% | 97.2% | 95.7% | 102% | 97.3% | 93.2% | 104% | 113% | 92.5% | 102% | 97.6% | 116% | 101% | 101% | 97.3% | 96.6% | 96% | 99% | 99% | 94.9% | 100% | 96.6% | > 10 µM | > 10 µM | > 10 µM | > 10 µM | > 10 µM | 0 | 0 | 0 | 0 | 0
O=C(NC(=O)c1c(F)cccc1F)Nc1cc(Cl)c(OC(F)(F)C(F)C(F)(F)F)cc1Cl (stereo not given) [lufenuron] | 100% | 95.1% | 93.8% | 96.8% | 95% | 95.4% | 98.9% | 92.1% | 83.2% | 95.3% | 98.6% | 94.3% | 109% | 101% | 101% | 100% | 95.1% | 96.7% | 98.4% | 99.7% | 99.2% | 108% | 98.3% | 110% | 100% | > 10 µM | > 10 µM | > 10 µM | > 10 µM | > 10 µM | 0 | 0 | 0 | 0 | 0
O=C1CCC(N2C(=O)c3ccccc3C2=O)C(=O)N1 (stereo not given) [thalidomide] | 89.6% | 91.9% | 90.9% | 94.7% | 94.9% | 89.8% | 92.1% | 92.2% | 93.6% | 97.9% | 102% | 99.8% | 89.4% | 99.1% | 97.8% | 101% | 95.4% | 100% | 95% | 98.6% | 103% | 102% | 93.9% | 97.3% | 96.1% | > 10 µM | > 10 µM | > 10 µM | > 10 µM | > 10 µM | 0 | 0 | 0 | 0 | 0
CCC(=O)c1cc(-c2ccc(Cl)cc2)n(-c2ccc(S(N)(=O)=O)cc2)c1C | 101% | 91.1% | 107% | 96.5% | 89.7% | 96.6% | 97.4% | 103% | 102% | 103% | 105% | 102% | 102% | 122% | 91.5% | 103% | 99.6% | 99.3% | 96.4% | 102% | 103% | 104% | 98.4% | 101% | 91.2% | > 10 µM | > 10 µM | > 10 µM | > 10 µM | > 10 µM | 0 | 0 | 0 | 0 | 0
CCS(=O)(=O)N1CCC([C@@H](C)n2c(C)c(C(=O)NCc3c(OC)cc(C)[nH]c3=O)c3ccccc32)CC1 [CPI-169] | 95.8% | 94.7% | 101% | 100% | 95% | 97.3% | 102% | 98.7% | 94.3% | 97.4% | 104% | 103% | 104% | 94.3% | 101% | 92.1% | 101% | 99.3% | 105% | 102% | 100% | 96.7% | 96.9% | 99.7% | 103% | > 10 µM | > 10 µM | > 10 µM | > 10 µM | > 10 µM | 0 | 0 | 0 | 0 | 0
CCCCN(CCCC)CC(O)c1cc(Cl)cc2c1-c1ccc(Cl)cc1/C2=C/c1ccc(Cl)cc1 (stereo not given) [lumefantrine] | 99.8% | 92.6% | 101% | 94.5% | 89.5% | 82.9% | 102% | 90% | 102% | 94.4% | 98.9% | 113% | 107% | 108% | 84.2% | 101% | 101% | 103% | 103% | 95.2% | 102% | 102% | 102% | 105% | 91.2% | > 10 µM | > 10 µM | > 10 µM | > 10 µM | > 10 µM | 0 | 0 | 0.1 | 0 | 0
CCN1CCN(Cc2ccc(-c3cc4c(N[C@H](C)c5ccccc5)ncnc4[nH]3)cc2)CC1 [AEE788] | 89.5% | 91.9% | 94.8% | 81.9% | 78% | 100% | 103% | 84.9% | 38.1% | 3.7% | 109% | 95.4% | 98.1% | 110% | 82.5% | 98.7% | 95.7% | 97.8% | 86.7% | 44.7% | 97.6% | 94.7% | 82.2% | 54.4% | 27.1% | > 10 µM | 0.548 µM | > 10 µM | 1.58 µM | 0.435 µM | 2.4 | 13.7 | 0.2 | 5.1 | 10.9
CS(=O)(=O)Nc1ccc(Cc2noc(-c3ccc4[nH]cc(CCN)c4c3)n2)cc1 | 97.9% | 101% | 105% | 98.5% | 104% | 104% | 101% | 102% | 90.2% | 103% | 93.8% | 116% | 91.2% | 95.8% | 98% | 98.6% | 96.9% | 102% | 99.1% | 98.8% | 98.3% | 105% | 100% | 101% | 106% | > 10 µM | > 10 µM | > 10 µM | > 10 µM | > 10 µM | 0 | 0 | 0 | 0 | 0
CCOc1ccccc1OC(c1ccccc1)C1CNCCO1 (stereo not given) [reboxetine] | 104% | 97.9% | 97.1% | 104% | 104% | 107% | 96.5% | 99.4% | 104% | 94.3% | 105% | 121% | 95.5% | 106% | 102% | 101% | 101% | 98.8% | 101% | 104% | 102% | 102% | 102% | 98.4% | 95.6% | > 10 µM | > 10 µM | > 10 µM | > 10 µM | > 10 µM | 0 | 0 | 0 | 0 | 0
